Reference: article PMC11843658 (Journal of Enzyme Inhibition and Medicinal Chemistry, 2025)
Read-outs that look alike come from different tables or passages of the source.

Experiments:
[1] = tested on: diffuse large B-cell lymphoma cells; design: method as in PMID 26002965; conditions: cited from earlier work
[2] = tested on: various cell lines; design: method as in PMID 26890117; conditions: cited from earlier work
[3] = tested on: KMS-12-PE cells; design: method as in PMID 36476642; conditions: myeloma KMS-12-PE cells; read-out: IC50, antiproliferative activity; cited from earlier work
[4] = tested on: MOLP-8 cells; design: method as in PMID 36476642; conditions: myeloma MOLP-8 cells; read-out: IC50, antiproliferative activity; cited from earlier work
[5] = tested on: MCF-7; conditions: read-out: IC50, antiproliferative activity, cited from earlier work
[6] = tested on: HCT-116 cells; design: method as in PMID 33773285; conditions: read-out: IC50, antiproliferative activity; cited from earlier work
[7] = tested on: ACHN cells; design: method as in PMID 33527838; conditions: cited from earlier work
[8] = tested on: NB cells; design: method as in PMID 36223680; conditions: cited from earlier work
[9] = tested on: HepG2 cells; test: Xenograft study, HepG2 cells in nude mice; type: in vivo, BALB/c nude mice; conditions: 10 mg/kg by gavage every day for 21 days, nude mice bearing HepG2 cells
Method: Tumorigenesis in nude mice could stimulate the growth process of human tumours in the body, and could be used to develop and evaluate the effectiveness and safety of anti-cancer candidates. Therefore, xenograft studies in nude mice were performed to evaluate anticancer effects of compound 14. Animals were treated according to the protocols established by the ethics committee of The Fourth Clinical College of Xinxiang Medical University. The in vivo experiments were carried out in accordance with the approved guidelines and approved by the ethics committee of The Fourth Clinical College of Xinxiang Medical University. The number of ethics approvals is XMU-2024–01-03. All authors have adhered to the ARRIVE guidelines (https://arriveguidelines.org/). BALB/c nude mice were purchased from Beijing Huafukang Biotechnology Co., LTD (Beijing, China), and fifteen mice were used in this study (aged 6–7 weeks and weighing 20–30 g). Before the animal experiments, all nude mice were given a week to adjust to the clean, hygienic and specific-pathogen-free environment. All nude mice were taken care of instainless steel cages with a constant temperature of 60% humidity, 25 °C and a 12/12 light/dark cycle. Nude mice were fed with refreshing water and nourishing food everyday.
Then, nude mice were anaesthetised with 2% isoflurane and 0.3 l/min of oxygen by the small animal anaesthesia machine (Beijing Yi Zejia Technology Co., LTD, Beijing, China). 3 × 10^5 human liver cancer HepG2 cells were subcutaneously injected in the right armpit of mice. Until the volume of tumours reached 60–100 mm^3, all mice were randomly divided into three groups and each group had five nude mice. An amount of 60 mg/kg of compound 14, 10 mg/kg of seclidemstat and water as the control group were given by gavage every day for 21 days. Weight of mice and tumour volume were measured every 3 d. All nude mice in this xenograft studies were performed euthanizing procedures using a carbon dioxide euthanasia chamber (Shanghai Yuyan Instruments Co., Ltd, Shanghai, China). The flow rate of carbon dioxide was adjusted at 20% of the volume of the euthanasia chamber per minute. Once nude mice were unconscious, the flow rate was increased to 100% of the euthanasia chamber volume per minute. Death was confirmed by immobility, non-breathing and pupil enlargement. Tumours form BALB/c nude mice were isolated and weighed.

[10] = target: T1, LSD1 (Homo sapiens, UniProt O60341); test: LSD1 screening assay kit (enzymatic activity); type: biochemical; design: purchased Cayman Chemical (Ann Arbor, MI); conditions: fluorescence, read-out: IC50 against LSD1
Method: After the incubation for 30 min at 37 °C, a mixture of horseradish peroxidase solution (20 μl) and fluorometric substrate solution (10 μl) was added to each well. Then, the 96-well plate was incubated for 15 min at 37 °C. Finally, the fluorescence of each well in the 96-well plate was measured at an emission wavelength of 590 nm and an excitation wavelength of 530 nm by a fluorimeter (Agilent Technologies Inc., Palo Alto, CA). Seclidemstat, a famous LSD1 inhibitor, was used as the control drug in this assay.

[11] = tested on: ovarian cancer cells; design: method as in PMID 31264855; conditions: cited from earlier work
[12] = tested on: HepG2; design: method as in earlier work; conditions: HepG2 cell line; read-out: IC50, antiproliferative activity; cited from earlier work
[13] = tested on: PC3; design: method as in earlier work; conditions: PC3 cell line; read-out: IC50, antiproliferative activity; cited from earlier work
[14] = tested on: PC3 cells; test: CCK8 assay, PC3 prostate cancer cells; type: cell-based; conditions: Homo sapiens, PC-3, CCK8, control drug, read-out: IC50, antiproliferative activity
Method: (§1) C42B, PC3, Caco-2, HepG2, MCF7, HL-60, 8505 C, OVCAR-3, and A549 were cultured to screen the broad-spectrum antiproliferative activity of compound 14. For above cell lines, three thousand cells per well were seeded in the 96-well plate and treated by compound 14 for 48 or 72 h at different concentrations (0, 5, 10, and 20 μM). In addition, HepG2, HEP3B, HUH6, and HUH7 were cultured to screen its antiproliferative activity against liver cancer cell lines. For these liver cancer cell lines, two thousand cells per well were seeded in the 96-well plate and treated by compound 14 for 48 h at different concentrations (0, 0.625, 1.25, 2.5, and 5 μM). Then, 10 μl of CCK8 was added into each well and cells were incubated in a humidified atmosphere of 5% CO2 at 37 °C for 4 h. The 96-well plate was measured with a microplate reader (Bio-Tek, San Diego, CA) at a wavelength of 450 nm to calculate IC50 values.

[15] = tested on: C42B cells; test: CCK8 assay, C42B prostate cancer cells; type: cell-based; conditions: Homo sapiens, CCK8, control drug, read-out: IC50, antiproliferative activity
Method: as §1

[16] = tested on: OVCAR-3 cells; test: CCK8 assay, OVCAR-3 ovarian cancer cells; type: cell-based; conditions: Homo sapiens, CCK8, control drug, read-out: IC50, antiproliferative activity
Method: as §1

[17] = tested on: A549 cells; test: CCK8 assay, A549 lung cancer cells; type: cell-based; conditions: Homo sapiens, CCK8, control drug, read-out: IC50, antiproliferative activity
Method: as §1

[18] = tested on: HepG2 cells; test: CCK8 assay, HepG2 liver cancer cells; type: cell-based; conditions: Homo sapiens, CCK8, control drug, read-out: IC50, antiproliferative activity
Method: as §1

[19] = tested on: HL-60 cells; test: CCK8 assay, HL-60 leukaemia cells; type: cell-based; conditions: Homo sapiens, CCK8, control drug, read-out: IC50, antiproliferative activity
Method: as §1

[20] = tested on: Caco-2 cells; test: CCK8 assay, Caco-2 colon cancer cells; type: cell-based; conditions: Homo sapiens, CCK8, control drug, read-out: IC50, antiproliferative activity
Method: as §1

[21] = tested on: MCF7 cells; test: CCK8 assay, MCF7 breast cancer cells; type: cell-based; conditions: Homo sapiens, CCK8, control drug, read-out: IC50, antiproliferative activity
Method: as §1

[22] = tested on: 8505 C cells; test: CCK8 assay, 8505 C thyroid cancer cells; type: cell-based; conditions: Homo sapiens, CCK8, control drug, read-out: IC50, antiproliferative activity
Method: as §1

[23] = tested on: THP-1 cells; design: method as in PMID 35525212; conditions: read-out: IC50, antiproliferative activity; cited from earlier work
[24] = tested on: H3K4me1/2; conditions: cited from earlier work
[25] = tested on: glioblastoma cells; design: method as in PMID 29683097; conditions: cited from earlier work
[26] = target: T1, LSD1; design: purchased Cayman Chemical (Ann Arbor, MI); conditions: cited from earlier work

Cc1nc2cccc(N)c2c(=O)n1C1CCC(=O)NC1=O (stereo not shown) [Compound 9]
apoptosis and proliferation [1]: induces apoptosis and inhibits proliferation

COc1cc(NC(=O)CCSc2nc3ccc(Cl)cc3c(=O)n2-c2ccc(F)cc2)cc(OC)c1OC [Compound 13]
anticancer effects [2]: exhibits extensive-spectrum anticancer effects

O=C1CCC(CS(=O)(=O)Cc2ccccc2)C(=O)N1 (stereo not shown) [Compound 10]
IC50 [3]: 5.17 µM | IC50 [4]: 5.52 µM

Cc1ccc(S(=O)(=O)CCC(=O)Nc2ccc(S(N)(=O)=O)cc2)cc1 [Compound 11]
IC50 ([5]; MCF-7 cells): 0.67 µM | IC50 [6]: 570 nM

O=C(c1ccc(OCCN2CCCCC2)cc1)c1c(-c2ccc(O)cc2)sc2cc(O)ccc12 [Raloxifene]
migration of ACHN cells [7]: inhibits migration against ACHN cells

O=S(=O)(Nc1ccc(Br)cc1-c1nn[nH]n1)c1ccc(-c2ccc(Cl)cc2)cc1 [Compound 3]
synergistic effect with bortezomib [8]: displays the synergistic effect against NB cells with bortezomib

C/C(=N\NC(=O)c1cccc(S(=O)(=O)N2CCN(C)CC2)c1)c1cc(Cl)ccc1O [Seclidemstat]
growth of subcutaneous tumours [9]: inhibited the growth of subcutaneous tumours | IC50 [10]: 20 ± 10 nM

COc1cccc(-c2cccc(NC(=O)CCc3cccc4c3B(O)OC4)c2)c1 [Compound 12]
colony formation and apoptosis [11]: significantly inhibits colony formation and induces apoptosis

O=C1CCC(NC(=O)CSc2nnc3c(=O)[nH]c4ccccc4n23)C(=O)N1 (stereo not shown) [Compound 8]
IC50 ([5]; MCF-7 cell line): 10.1 µM | IC50 [12]: 9.81 µM | IC50 [13]: 15.5 µM

O=c1[nH]cc(F)c(=O)[nH]1 [5-Fluorouracil]
IC50 [14]: 12.3 µM | IC50 [15]: 16.7 µM | IC50 [16]: > 20 µM | IC50 [17]: > 20 µM | IC50 [18]: 9.87 µM | IC50 [19]: 7.25 µM | IC50 [20]: > 20 µM | IC50 [21]: > 20 µM | IC50 [22]: 12.4 µM

COc1cc2nc(NCCCN(C)C)nc(NC3CCN(Cc4ccc5ccccc5c4)CC3)c2cc1OC [Compound 2]
IC50 [23]: 300 nM | expression levels of H3K4me2 [24]: increases the expression levels of H3K4me2

CCCCCCCCCCCCSC(=O)CC1CC(=O)NC(=O)C1 [Compound 7]
cell cycle and clonogenic capacity [25]: induces cell cycle arrest and reduces clonogenic capacity

COc1ccc(CN(C(=O)CSC(=S)N2CCN(c3ccc(N)cc3)CC2)c2cc(OC)c(OC)c(OC)c2)cc1O [Compound 6]
LSD1 inhibition [26]: inhibits LSD1 | accumulation of H3K4me1/2 [24]: induces the accumulation of H3K4me1/2
